The data set addresses ATP-dependent translocase ABCB1 (Mus musculus, UniProt P21447). Kind of data set: TP_TRANSPORTER: Western in vivo, brain of ddY mouse. It counts as functional, organism-based.

Here are results for one molecule from ChEMBL document CHEMBL2074301, “Effect of endotoxin on doxorubicin transport across blood-brain barrier and P-glycoprotein function in mice” (Eur J Pharmacol, 2002).

ATP-dependent translocase ABCB1, sequence (P21447 whole entry): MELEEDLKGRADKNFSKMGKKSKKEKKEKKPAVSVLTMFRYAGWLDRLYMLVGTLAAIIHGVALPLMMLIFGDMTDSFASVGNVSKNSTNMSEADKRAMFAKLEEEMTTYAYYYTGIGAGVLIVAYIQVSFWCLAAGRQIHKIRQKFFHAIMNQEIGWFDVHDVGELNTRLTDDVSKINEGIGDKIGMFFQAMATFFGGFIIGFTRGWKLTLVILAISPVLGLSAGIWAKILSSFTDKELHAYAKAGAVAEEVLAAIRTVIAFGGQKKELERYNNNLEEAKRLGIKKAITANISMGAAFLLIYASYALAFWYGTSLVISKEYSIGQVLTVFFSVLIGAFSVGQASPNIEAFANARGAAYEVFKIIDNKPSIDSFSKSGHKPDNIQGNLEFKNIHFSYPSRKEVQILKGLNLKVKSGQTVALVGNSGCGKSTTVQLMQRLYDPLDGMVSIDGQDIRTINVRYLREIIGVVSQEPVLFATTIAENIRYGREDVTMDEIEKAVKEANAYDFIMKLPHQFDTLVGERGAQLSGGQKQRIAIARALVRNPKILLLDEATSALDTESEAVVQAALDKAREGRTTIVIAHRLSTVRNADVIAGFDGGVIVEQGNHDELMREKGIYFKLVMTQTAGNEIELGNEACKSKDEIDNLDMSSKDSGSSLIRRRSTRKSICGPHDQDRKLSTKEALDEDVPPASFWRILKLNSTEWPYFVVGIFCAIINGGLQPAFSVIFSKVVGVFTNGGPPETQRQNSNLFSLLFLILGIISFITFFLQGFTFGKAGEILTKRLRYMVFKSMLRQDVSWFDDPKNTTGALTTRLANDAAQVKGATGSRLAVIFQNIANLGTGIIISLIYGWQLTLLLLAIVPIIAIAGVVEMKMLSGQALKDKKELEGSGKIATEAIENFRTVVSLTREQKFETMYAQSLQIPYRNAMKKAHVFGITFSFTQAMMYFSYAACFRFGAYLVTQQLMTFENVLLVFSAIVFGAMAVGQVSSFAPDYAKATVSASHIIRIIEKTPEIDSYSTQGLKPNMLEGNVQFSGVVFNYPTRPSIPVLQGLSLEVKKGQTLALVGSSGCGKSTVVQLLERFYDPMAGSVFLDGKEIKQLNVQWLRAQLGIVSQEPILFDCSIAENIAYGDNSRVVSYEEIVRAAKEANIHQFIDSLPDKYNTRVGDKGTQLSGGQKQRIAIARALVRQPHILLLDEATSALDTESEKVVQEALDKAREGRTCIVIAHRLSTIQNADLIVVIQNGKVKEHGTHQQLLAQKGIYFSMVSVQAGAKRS

Turning to `CCCCCCCCCCCCCC(=O)OC(CCCCCCCCCCC)CC(=O)OC1C(NC(=O)CC(CCCCCCCCCCC)OC(=O)CCCCCCCCCCC)C(OC2CC(OC(=O)CC(O)CCCCCCCCCCC)C(NC(=O)CC(O)CCCCCCCCCCC)C(O)O2)OC(CO)C1OP(=O)(O)O` (stereo unspecified), the Activity result is “inducer [Decrease]”.
